Experimental data as given in ChEMBL document CHEMBL4507290 (2021).

Columns and labels:
[1] = target: Activin receptor type-2B (Homo sapiens) (UniProt Q13705); settings: Compound concentration 1000.0 nM
[2] = target: Insulin-like growth factor 1 receptor (Homo sapiens) (UniProt P08069); settings: Compound concentration 1000.0 nM
[3] = target: RAC-gamma serine/threonine-protein kinase (Homo sapiens) (UniProt Q9Y243); settings: Compound concentration 1000.0 nM
[4] = target: Serine/threonine-protein kinase VRK2 (Homo sapiens) (UniProt Q86Y07); settings: Compound concentration 1000.0 nM
[5] = target: Ephrin type-A receptor 6 (Homo sapiens) (UniProt Q9UF33); settings: Compound concentration 1000.0 nM
[6] = tested on: Receptor-type tyrosine-protein kinase FLT3 (Homo sapiens), P36888 [D835H]; settings: Compound concentration 1000.0 nM
[7] = target: Cyclin-dependent kinase 14 (Homo sapiens) (UniProt O94921); settings: Compound concentration 1000.0 nM
[8] = tested on: Epidermal growth factor receptor (Homo sapiens), P00533 [G719C]; settings: Compound concentration 1000.0 nM
[9] = target: Tyrosine-protein kinase ITK/TSK (Homo sapiens) (UniProt Q08881); settings: Compound concentration 1000.0 nM
[10] = target: Ribosomal protein S6 kinase alpha-6 (Homo sapiens) (UniProt Q9UK32); settings: Compound concentration 1000.0 nM
[11] = target: Mast/stem cell growth factor receptor Kit (Homo sapiens) (UniProt P10721); settings: Compound concentration 1000.0 nM
[12] = target: Rhodopsin kinase GRK1 (Homo sapiens) (UniProt Q15835); settings: Compound concentration 1000.0 nM
[13] = target: 5-hydroxytryptamine receptor 2C (Homo sapiens) (UniProt P28335); settings: Compound concentration 10.0 uM
[14] = target: High affinity nerve growth factor receptor (Homo sapiens) (UniProt P04629); settings: Compound concentration 1000.0 nM
[15] = tested on: Phosphatidylinositol 4,5-bisphosphate 3-kinase catalytic subunit alpha isoform (Homo sapiens), P42336 [H1047L]; settings: Compound concentration 1000.0 nM
[16] = target: Cytoplasmic tyrosine-protein kinase BMX (Homo sapiens) (UniProt P51813); settings: Compound concentration 1000.0 nM
[17] = tested on: Phosphatidylinositol 4,5-bisphosphate 3-kinase catalytic subunit alpha isoform (Homo sapiens), P42336 [E542K]; settings: Compound concentration 1000.0 nM
[18] = target: Sodium-dependent noradrenaline transporter (Homo sapiens) (UniProt P23975); settings: Compound concentration 10.0 uM
[19] = target: Serine/threonine-protein kinase WNK4 (Homo sapiens) (UniProt Q96J92); settings: Compound concentration 1000.0 nM
[20] = target: Tyrosine-protein kinase HCK (Homo sapiens) (UniProt P08631); settings: Compound concentration 1000.0 nM
[21] = target: Serine/threonine-protein kinase 36 (Homo sapiens) (UniProt Q9NRP7); settings: Compound concentration 1000.0 nM
[22] = target: Aurora kinase C (Homo sapiens) (UniProt Q9UQB9); settings: Compound concentration 1000.0 nM
[23] = target: BDNF/NT-3 growth factors receptor (Homo sapiens) (UniProt Q16620); settings: Compound concentration 1000.0 nM
[24] = target: Activated CDC42 kinase 1 (Homo sapiens) (UniProt Q07912); settings: Compound concentration 1000.0 nM
[25] = target: Mitogen-activated protein kinase kinase kinase 20 (Homo sapiens) (UniProt Q9NYL2); settings: Compound concentration 1000.0 nM
[26] = target: 5-hydroxytryptamine receptor 2A (Homo sapiens) (UniProt P28223); settings: Compound concentration 10.0 uM
[27] = target: Serine/threonine-protein kinase SIK2 (Homo sapiens) (UniProt Q9H0K1); settings: Compound concentration 1000.0 nM
[28] = target: Mitogen-activated protein kinase kinase kinase 9 (Homo sapiens) (UniProt P80192); settings: Compound concentration 1000.0 nM
[29] = target: Serine/threonine-protein kinase DCLK2 (Homo sapiens) (UniProt Q8N568); settings: Compound concentration 1000.0 nM
[30] = target: SRSF protein kinase 1 (Homo sapiens) (UniProt Q96SB4); settings: Compound concentration 1000.0 nM
[31] = target: Mu-type opioid receptor (Homo sapiens) (UniProt P35372); settings: Compound concentration 10.0 uM
[32] = target: Mitogen-activated protein kinase 9 (Homo sapiens) (UniProt P45984); settings: Compound concentration 1000.0 nM
[33] = target: Muscarinic acetylcholine receptor M4 (Homo sapiens) (UniProt P08173); settings: Compound concentration 10.0 uM
[34] = tested on: Receptor-type tyrosine-protein kinase FLT3 (Homo sapiens), P36888 [UNDEFINED MUTATION]; settings: Compound concentration 1000.0 nM
[35] = target: Phosphatidylinositol 4-phosphate 3-kinase C2 domain-containing subunit beta (Homo sapiens) (UniProt O00750); settings: Compound concentration 1000.0 nM
[36] = tested on: Epidermal growth factor receptor (Homo sapiens), P00533 [L861Q]; settings: Compound concentration 1000.0 nM
[37] = target: Calcium/calmodulin-dependent protein kinase kinase 1 (Homo sapiens) (UniProt Q8N5S9); settings: Compound concentration 1000.0 nM
[38] = target: Alpha-2B adrenergic receptor (Homo sapiens) (UniProt P18089); settings: Compound concentration 10.0 uM
[39] = tested on: Epidermal growth factor receptor (Homo sapiens), P00533 [UNDEFINED MUTATION]; settings: Compound concentration 1000.0 nM
[40] = target: Dual specificity tyrosine-phosphorylation-regulated kinase 2 (Homo sapiens) (UniProt Q92630); settings: Compound concentration 1000.0 nM
[41] = tested on: Receptor-type tyrosine-protein kinase FLT3 (Homo sapiens), P36888 [D835Y]; settings: Compound concentration 1000.0 nM
[42] = target: Membrane-associated tyrosine- and threonine-specific cdc2-inhibitory kinase (Homo sapiens) (UniProt Q99640); settings: Compound concentration 1000.0 nM
[43] = target: Cyclin-dependent kinase-like 5 (Homo sapiens) (UniProt O76039); settings: Compound concentration 1000.0 nM
[44] = target: Ephrin type-B receptor 3 (Homo sapiens) (UniProt P54753); settings: Compound concentration 1000.0 nM
[45] = target: Mitotic checkpoint serine/threonine-protein kinase BUB1 (Homo sapiens) (UniProt O43683); settings: Compound concentration 1000.0 nM

Sequence of Cytoplasmic tyrosine-protein kinase BMX (Homo sapiens) (P51813 whole entry, canonical isoform): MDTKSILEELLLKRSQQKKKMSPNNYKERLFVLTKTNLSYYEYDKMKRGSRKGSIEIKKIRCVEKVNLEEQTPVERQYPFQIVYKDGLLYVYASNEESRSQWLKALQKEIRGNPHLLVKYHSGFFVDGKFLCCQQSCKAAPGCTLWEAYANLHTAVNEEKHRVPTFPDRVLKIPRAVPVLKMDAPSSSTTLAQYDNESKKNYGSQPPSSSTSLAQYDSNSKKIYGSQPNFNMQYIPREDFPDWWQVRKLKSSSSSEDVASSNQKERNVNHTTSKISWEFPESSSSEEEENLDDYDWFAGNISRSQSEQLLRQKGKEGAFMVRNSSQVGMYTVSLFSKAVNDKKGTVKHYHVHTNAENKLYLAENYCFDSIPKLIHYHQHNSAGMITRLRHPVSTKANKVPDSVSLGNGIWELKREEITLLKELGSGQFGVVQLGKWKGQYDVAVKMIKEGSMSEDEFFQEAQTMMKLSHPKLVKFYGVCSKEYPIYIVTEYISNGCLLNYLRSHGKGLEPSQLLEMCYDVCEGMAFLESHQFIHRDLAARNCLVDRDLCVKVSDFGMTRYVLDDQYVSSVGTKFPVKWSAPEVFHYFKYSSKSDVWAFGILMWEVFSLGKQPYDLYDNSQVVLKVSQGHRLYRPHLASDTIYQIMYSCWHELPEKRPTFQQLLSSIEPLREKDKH
Sequence of Mitogen-activated protein kinase 9 (Homo sapiens) (P45984 whole entry, looked up): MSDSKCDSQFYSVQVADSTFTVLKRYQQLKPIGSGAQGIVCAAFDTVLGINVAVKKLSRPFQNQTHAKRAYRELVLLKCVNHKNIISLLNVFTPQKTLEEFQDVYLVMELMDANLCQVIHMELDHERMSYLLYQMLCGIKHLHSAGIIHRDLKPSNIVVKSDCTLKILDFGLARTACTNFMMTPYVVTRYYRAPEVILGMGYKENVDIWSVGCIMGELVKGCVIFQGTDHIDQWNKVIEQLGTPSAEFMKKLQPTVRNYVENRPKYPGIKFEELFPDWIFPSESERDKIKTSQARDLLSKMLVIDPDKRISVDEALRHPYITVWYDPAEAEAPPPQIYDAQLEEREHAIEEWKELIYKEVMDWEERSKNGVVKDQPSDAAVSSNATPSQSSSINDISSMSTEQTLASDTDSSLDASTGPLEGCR
Sequence of Insulin-like growth factor 1 receptor (Homo sapiens) (P08069 31-736 limits assumed): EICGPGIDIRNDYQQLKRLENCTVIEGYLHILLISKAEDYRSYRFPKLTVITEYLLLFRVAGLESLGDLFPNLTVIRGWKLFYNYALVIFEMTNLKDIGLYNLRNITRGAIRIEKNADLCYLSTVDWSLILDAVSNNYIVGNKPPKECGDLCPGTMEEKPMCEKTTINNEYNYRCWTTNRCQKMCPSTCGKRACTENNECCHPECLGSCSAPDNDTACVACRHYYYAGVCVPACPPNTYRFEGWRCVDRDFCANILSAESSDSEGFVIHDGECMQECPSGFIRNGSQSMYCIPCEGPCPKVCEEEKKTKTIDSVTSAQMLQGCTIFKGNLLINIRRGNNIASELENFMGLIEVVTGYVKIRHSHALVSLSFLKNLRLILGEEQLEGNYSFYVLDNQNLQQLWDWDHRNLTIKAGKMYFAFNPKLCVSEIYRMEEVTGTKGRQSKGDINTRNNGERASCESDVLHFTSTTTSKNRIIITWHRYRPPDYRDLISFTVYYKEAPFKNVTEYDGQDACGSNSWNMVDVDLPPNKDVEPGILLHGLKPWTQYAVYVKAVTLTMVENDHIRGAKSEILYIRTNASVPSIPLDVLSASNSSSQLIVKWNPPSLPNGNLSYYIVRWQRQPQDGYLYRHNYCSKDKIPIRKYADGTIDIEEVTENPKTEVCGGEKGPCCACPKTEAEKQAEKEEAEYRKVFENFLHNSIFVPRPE
Sequence of Insulin-like growth factor 1 receptor (Homo sapiens) (P08069 741-1367 limits assumed): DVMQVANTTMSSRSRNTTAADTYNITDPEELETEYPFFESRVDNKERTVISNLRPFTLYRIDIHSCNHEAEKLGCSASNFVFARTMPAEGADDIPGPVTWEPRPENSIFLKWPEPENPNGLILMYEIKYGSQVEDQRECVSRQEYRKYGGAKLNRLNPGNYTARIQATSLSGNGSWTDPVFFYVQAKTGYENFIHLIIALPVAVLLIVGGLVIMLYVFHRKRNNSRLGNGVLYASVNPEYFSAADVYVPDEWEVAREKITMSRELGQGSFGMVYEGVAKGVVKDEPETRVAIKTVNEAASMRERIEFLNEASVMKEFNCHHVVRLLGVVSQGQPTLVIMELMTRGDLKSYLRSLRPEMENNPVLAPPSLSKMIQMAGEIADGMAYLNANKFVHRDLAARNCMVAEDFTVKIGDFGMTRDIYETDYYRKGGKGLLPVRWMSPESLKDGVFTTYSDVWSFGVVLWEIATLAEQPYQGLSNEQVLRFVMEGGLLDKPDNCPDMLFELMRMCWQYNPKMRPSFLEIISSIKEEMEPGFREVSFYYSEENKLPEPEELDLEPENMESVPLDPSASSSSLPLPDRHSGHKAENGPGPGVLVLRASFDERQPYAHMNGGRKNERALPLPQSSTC
Sequence of Mast/stem cell growth factor receptor Kit (Homo sapiens) (P10721 whole entry): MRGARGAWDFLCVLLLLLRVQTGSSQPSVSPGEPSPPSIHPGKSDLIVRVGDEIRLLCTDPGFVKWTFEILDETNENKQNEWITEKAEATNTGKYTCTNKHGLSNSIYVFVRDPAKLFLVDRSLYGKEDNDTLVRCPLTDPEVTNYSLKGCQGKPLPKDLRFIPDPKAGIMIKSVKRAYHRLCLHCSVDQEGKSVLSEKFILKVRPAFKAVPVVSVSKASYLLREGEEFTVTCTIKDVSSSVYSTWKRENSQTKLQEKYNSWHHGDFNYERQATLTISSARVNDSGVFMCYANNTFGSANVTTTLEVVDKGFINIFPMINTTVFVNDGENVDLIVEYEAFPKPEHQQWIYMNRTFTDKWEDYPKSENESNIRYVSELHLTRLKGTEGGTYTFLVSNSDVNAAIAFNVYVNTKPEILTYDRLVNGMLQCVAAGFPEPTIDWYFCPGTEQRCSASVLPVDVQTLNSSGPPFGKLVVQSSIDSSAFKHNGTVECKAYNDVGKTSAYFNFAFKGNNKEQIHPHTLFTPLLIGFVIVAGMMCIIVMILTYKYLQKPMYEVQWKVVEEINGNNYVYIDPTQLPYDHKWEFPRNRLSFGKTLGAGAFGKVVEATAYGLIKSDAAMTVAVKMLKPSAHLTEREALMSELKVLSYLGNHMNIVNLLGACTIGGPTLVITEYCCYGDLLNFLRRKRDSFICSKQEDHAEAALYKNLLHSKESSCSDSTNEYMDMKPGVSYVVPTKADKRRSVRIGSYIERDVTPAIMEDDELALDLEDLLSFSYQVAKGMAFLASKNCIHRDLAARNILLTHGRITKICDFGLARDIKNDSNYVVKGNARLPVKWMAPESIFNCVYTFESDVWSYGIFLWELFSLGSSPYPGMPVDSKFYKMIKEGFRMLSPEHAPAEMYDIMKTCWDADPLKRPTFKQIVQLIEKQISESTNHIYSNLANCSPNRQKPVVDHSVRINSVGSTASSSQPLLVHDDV
Sequence of 5-hydroxytryptamine receptor 2A (Homo sapiens) (P28223 whole entry): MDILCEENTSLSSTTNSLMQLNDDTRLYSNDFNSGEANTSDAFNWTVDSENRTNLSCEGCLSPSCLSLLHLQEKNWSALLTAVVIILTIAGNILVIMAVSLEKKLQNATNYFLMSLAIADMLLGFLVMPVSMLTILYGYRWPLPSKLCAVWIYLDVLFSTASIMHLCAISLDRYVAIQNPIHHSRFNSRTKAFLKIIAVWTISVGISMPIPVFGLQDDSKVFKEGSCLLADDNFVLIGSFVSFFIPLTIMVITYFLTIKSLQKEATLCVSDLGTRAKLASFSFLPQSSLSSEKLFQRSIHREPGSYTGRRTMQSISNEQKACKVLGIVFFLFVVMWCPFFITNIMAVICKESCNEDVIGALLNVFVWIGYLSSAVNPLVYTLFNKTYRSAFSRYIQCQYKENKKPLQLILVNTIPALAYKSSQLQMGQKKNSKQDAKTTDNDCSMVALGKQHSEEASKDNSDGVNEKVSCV
Sequence of 5-hydroxytryptamine receptor 2C (Homo sapiens) (P28335 whole entry): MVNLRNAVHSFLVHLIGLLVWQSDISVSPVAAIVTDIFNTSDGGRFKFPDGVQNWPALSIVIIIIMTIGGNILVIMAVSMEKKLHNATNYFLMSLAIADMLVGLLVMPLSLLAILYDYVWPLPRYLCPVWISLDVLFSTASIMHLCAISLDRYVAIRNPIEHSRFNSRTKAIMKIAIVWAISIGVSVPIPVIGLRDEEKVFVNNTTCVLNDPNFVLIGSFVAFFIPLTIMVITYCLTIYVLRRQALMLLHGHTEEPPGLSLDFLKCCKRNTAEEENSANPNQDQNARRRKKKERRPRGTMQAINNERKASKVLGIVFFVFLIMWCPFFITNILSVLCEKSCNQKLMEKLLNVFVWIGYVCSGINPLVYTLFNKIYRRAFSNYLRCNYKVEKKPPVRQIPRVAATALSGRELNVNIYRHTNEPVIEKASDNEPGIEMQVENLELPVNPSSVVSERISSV
Sequence of Aurora kinase C (Homo sapiens) (Q9UQB9 whole entry): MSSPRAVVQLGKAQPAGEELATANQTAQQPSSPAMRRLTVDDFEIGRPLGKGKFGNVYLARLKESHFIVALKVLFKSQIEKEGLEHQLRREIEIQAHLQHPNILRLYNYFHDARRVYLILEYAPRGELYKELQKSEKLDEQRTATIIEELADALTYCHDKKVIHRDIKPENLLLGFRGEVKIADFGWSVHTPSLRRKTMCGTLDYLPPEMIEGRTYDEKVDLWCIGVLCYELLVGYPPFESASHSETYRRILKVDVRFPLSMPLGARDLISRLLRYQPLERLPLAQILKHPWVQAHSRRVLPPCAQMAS

CN([C@@H]1CCc2c(CC(=O)O)c3cc(S(C)(=O)=O)ccc3n2C1)S(=O)(=O)c1ccc(F)cc1
inactive: residual activity [1] 100% | residual activity [2] 98% | residual activity [3] 83% | residual activity [4] 94% | residual activity [5] 91% | residual activity [6] 76% | residual activity [7] 100% | residual activity [8] 98% | residual activity [9] 100% | residual activity [10] 100% | residual activity [11] 89% | residual activity [12] 70% | inhibition [13] 0.933% | residual activity [14] 100% | residual activity [15] 96% | residual activity [16] 100% | residual activity [17] 88% | inhibition [18] 22.4% | residual activity [19] 100% | residual activity [20] 87% | residual activity [21] 98% | residual activity [22] 78% | residual activity [23] 100% | residual activity [24] 92% | residual activity [25] 80% | inhibition [26] 7.27% | residual activity [27] 93% | residual activity [28] 91% | residual activity [29] 100% | residual activity [30] 100% | inhibition [31] 7.34% | residual activity [32] 100% | inhibition [33] -1.13% | residual activity [34] 98% | residual activity [35] 100% | residual activity [36] 100% | residual activity [37] 100% | inhibition [38] -2.39% | residual activity [39] 100% | residual activity [40] 94% | residual activity [41] 100% | residual activity [42] 100% | residual activity [43] 93% | residual activity [44] 90% | residual activity [45] 86%

CN([C@@H]1CCc2c(CC(=O)O)c3ccccc3n2C1)S(=O)(=O)c1ccc(F)cc1 [MK-7246]
inactive: residual activity [1] 98% | residual activity [2] 100% | residual activity [3] 100% | residual activity [4] 100% | residual activity [5] 91% | residual activity [6] 91% | residual activity [7] 100% | residual activity [8] 100% | residual activity [9] 96% | residual activity [10] 100% | residual activity [11] 96% | residual activity [12] 88% | inhibition [13] -1.51% | residual activity [14] 100% | residual activity [15] 100% | residual activity [16] 100% | residual activity [17] 86% | inhibition [18] 23.8% | residual activity [19] 100% | residual activity [20] 95% | residual activity [21] 100% | residual activity [22] 100% | residual activity [23] 100% | residual activity [24] 100% | residual activity [25] 99% | inhibition [26] -6.57% | residual activity [27] 99% | residual activity [28] 100% | residual activity [29] 100% | residual activity [30] 100% | inhibition [31] 1.33% | residual activity [32] 98% | inhibition [33] 24.4% | residual activity [34] 96% | residual activity [35] 94% | residual activity [36] 100% | residual activity [37] 91% | inhibition [38] 12.7% | residual activity [39] 100% | residual activity [40] 95% | residual activity [41] 100% | residual activity [42] 100% | residual activity [43] 74% | residual activity [44] 88% | residual activity [45] 79%
